# Test results published in article PMC10675597, “Design, Synthesis, and Antisickling Investigation of a Thiazolidine Prodrug of TD-7 That Prolongs the Duration of Action of Antisickling Aromatic Aldehyde” (Pharmaceutics, 2023).
# Assays:
# [1] = tested on: SS cells (homozygous sickle cell blood); assay: In-vitro time-dependent RBC sickling inhibition under hypoxia; format: cell-based, human; settings: 2 mM; for inhibition at 2000 µM: Homo sapiens, SS cells 20% hematocrit, hypoxia (4% oxygen/96% nitrogen)
# Method: Red blood cell sickling inhibition studies with Pro-7 and the control TD-7 was conducted using previously reported procedure. Blood suspensions from subjects with homozygous SCD (hematocrit 20%) were incubated under air in the absence or presence of test compounds at 37 °C for 1 h to ensure that binding has attained equilibrium. […] Aliquot samples were fixed with 2% glutaraldehyde solution without exposure to air, and then subjected to microscopic morphological analysis.
# Human normal whole blood was used to assess the degree of Hb modification and Hb oxygen affinity (P50 shift), while sickle blood was used to investigate RBC sickling inhibition. […] The results summarized in Table 1 and Figure 4A–C show time-dependent effects for all three pharmacodynamic activities. […] Even at the end of the 24-h experiment, Pro-7 activity was still increasing.
# [2] = molecular target: T1, Hb in human normal whole blood (Homo sapiens, UniProt P69905); assay: In-vitro time-dependent oxygen equilibrium study (P50 shift); format: cell-based; settings: 2 mM; for %Hb O2 Affinity (P50 Shift): normal whole blood 30% hematocrit
# T1 construct: normal whole blood (AA) was collected from adult donors; from tissue; host or cells: normal (AA) human whole blood from adult donors, 30% hematocrit
# T1 sequence (P69905 2-142 limits assumed): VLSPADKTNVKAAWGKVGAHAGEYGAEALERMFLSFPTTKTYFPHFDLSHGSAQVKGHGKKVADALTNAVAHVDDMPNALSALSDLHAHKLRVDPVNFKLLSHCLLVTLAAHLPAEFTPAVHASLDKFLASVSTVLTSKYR
# T1 sequence (P68871 2-147 partner limits assumed): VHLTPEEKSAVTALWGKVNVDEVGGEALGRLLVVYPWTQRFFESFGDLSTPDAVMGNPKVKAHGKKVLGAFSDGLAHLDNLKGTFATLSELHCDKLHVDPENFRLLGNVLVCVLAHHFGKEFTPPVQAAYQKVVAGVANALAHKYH
# Method: An oxygen equilibrium curve study was conducted in a time-dependent manner to determine the effect and duration of Pro-7 on Hb affinity for oxygen (P50 shift) following standard procedure. Pro-7, along with the controls TD-7 and DMSO were used for the studies with normal whole blood sample (30% hematocrit). Each compound was incubated with the blood at a final concentration of 2 mM, and aliquot samples were taken at 1, 3, 6, 12 and 24 h and further incubated in IL 237 tonometer (Instrumentation Laboratories, Inc., Lexington, MA, USA) for 10 min at 37 °C, and allowed to equilibrate at oxygen tensions 6, 20, and 40 mmHg. The samples were then aspirated into a Radiometer ABL 800 Automated Blood Gas Analyzer (Copenhagen, Denmark ) to determine the pH, partial pressure of CO2 (pCO2), partial pressure of oxygen (pO2), and Hb oxygen saturation values (SO2). The measured values of pO2 (mmHg) and SO2 at each pO2 value were then subjected to a non-linear regression analysis using the program Scientist (Micromath, Salt Lake City, UT, USA) to estimate P50 as a measure of Hb oxygen affinity as previously reported.
# (§1) Human normal whole blood was used to assess the degree of Hb modification and Hb oxygen affinity (P50 shift), while sickle blood was used to investigate RBC sickling inhibition. Pro-7 and the positive control TD-7 were incubated with normal whole blood suspensions. […] For the sickling inhibition study, Pro-7 and the positive control TD-7 were incubated with SS blood suspensions under hypoxic conditions (2.5% O2/97.5% N2), and aliquot blood samples were drawn at three time points (1, 3 and 6 h) and used for assessing RBC morphology. The results summarized in Table 1 and Figure 4A–C show time-dependent effects for all three pharmacodynamic activities. […] Even at the end of the 24-h experiment, Pro-7 activity was still increasing.
# [3] = In-vitro stability in different pH buffers (aldehyde peak absorbance at 349 nm); format: physicochemical; settings: for Stability (absorbance of aldehyde peak at 349 nm): 1 mM, 37 °C
# Method: The stability of Pro-7 and the control TD-7 in different pH buffers (PBS buffer at pH 7.4, KCl·HCl buffer at pH 2.0, and Tris buffer at pH 8.0) was evaluated over time as previously reported. The ionic strength of all buffers was kept constant at 150 mM. A 200 mM stock solution of each compound was prepared using anhydrous DMSO. 1 mM solutions of each of the test compounds TD-7 and Pro-7 were prepared in duplicate for each of the three different pH buffers. […]
# An in-vitro time-dependent (1–96 h) stability study of Pro-7 was conducted to inform the formulation of the prodrug. The study was conducted at three different pHs: 2.0, 7.4 and 8.0, which mimic stomach, blood and intestinal pH conditions, respectively. The presence of TD-7 or the rate of appearance of TD-7 upon dissociation of Pro-7 was monitored at 349 nm spectrophotometrically.
# [4] = molecular target: T1, Hb in human normal whole blood; assay: In-vitro time-dependent Hb modification (Hb adduct formation), cation-exchange HPLC; format: cell-based; settings: 2 mM; for %Hb Modification (Hb Adduct): normal whole blood 30% hematocrit
# Method: Pro-7 and the control TD-7 were used to conduct time-dependent Hb modification (Hb adduct formation) studies using normal whole blood as previously reported. A 200 mM stock solution of each compound was made with DMSO. In a 96-well 1.2 mL polypropylene deep-well plate (Thermo Scientific, Hampshire, UK), 2.0 mM concentration of each compound was added to 600 μL of whole blood (30% hematocrit), which was then incubated at 37 °C for 24 h with shaking (at 140 rpm). A control sample was supplemented only with an equivalent volume of DMSO. At different time points (0–24 h), 50 μL aliquots of this mixture were withdrawn from each well using a multichannel pipette and added to respective tubes containing 50 μL of sodium cyanoborohydride (NaBH3CN) and sodium borohydride (NaBH4) mixture (1:1 v/v 50 mM stock) to terminate the Schiff-base reaction, fix the Schiff-base Hb adducts and reduce the free reactive aldehyde. After mixing, the tubes were stored immediately at −80 °C until ready for analysis using cation-exchange HPLC (Hitachi D-7000 Series, Hitachi Instruments, Inc. San Jose, CA, USA) for Hb-compound adduct formation. The observed Hb adducts in %Hb modification were plotted as a function of time (h).
# as §1
compound,measurement,setting,value
"COc1ccc(OCc2cccc(CO)n2)c(C=O)c1 [TD-7, 2-((6-(hydroxymethyl)pyridin-2-yl)methoxy)-5-methoxybenzaldehyde]","time of peak effect, RBC sickling inhibition","[1]; SS blood, hypoxia",peaked quickly at the first hour
same,inhibition at 2000 µM,[1]; 1 h,76.3%
same,inhibition at 2000 µM,[1]; 3 h,59.6%
same,inhibition at 2000 µM,[1]; 6 h,54%
same,"time of peak effect, Hb oxygen affinity",[2]; normal whole blood,peaked quickly at the first hour
same,%Hb O2 Affinity (P50 Shift),[2]; 1 h,69.26%
same,%Hb O2 Affinity (P50 Shift),[2]; 3 h,67.42%
same,%Hb O2 Affinity (P50 Shift),[2]; 6 h,49.06%
same,%Hb O2 Affinity (P50 Shift),[2]; 12 h,49.58%
same,%Hb O2 Affinity (P50 Shift),[2]; 24 h,48.56%
same,Stability (absorbance of aldehyde peak at 349 nm),"[3]; pH 2.0, 0 hr",3.23 ± 0.08
same,stability in buffer (in words),"[3]; pH 2.0, 7.4 and 8.0, 96 h experiment",showed stability at all three pHs
same,Stability (absorbance of aldehyde peak at 349 nm),"[3]; pH 2.0, 1 hr",3.02 ± 0.00
same,Stability (absorbance of aldehyde peak at 349 nm),"[3]; pH 2.0, 2 hr",3.03 ± 0.04
same,Stability (absorbance of aldehyde peak at 349 nm),"[3]; pH 2.0, 3 hr",2.97 ± 0.04
same,Stability (absorbance of aldehyde peak at 349 nm),"[3]; pH 2.0, 6 hr",2.98 ± 0.01
same,Stability (absorbance of aldehyde peak at 349 nm),"[3]; pH 2.0, 24 hr",2.93 ± 0.01
same,Stability (absorbance of aldehyde peak at 349 nm),"[3]; pH 7.4, 0 hr",3.05 ± 0.10
same,Stability (absorbance of aldehyde peak at 349 nm),"[3]; pH 7.4, 1 hr",2.97 ± 0.01
same,Stability (absorbance of aldehyde peak at 349 nm),"[3]; pH 7.4, 2 hr",2.95 ± 0.03
same,Stability (absorbance of aldehyde peak at 349 nm),"[3]; pH 7.4, 3 hr",3.09 ± 0.06
same,Stability (absorbance of aldehyde peak at 349 nm),"[3]; pH 7.4, 6 hr",2.92 ± 0.02
same,Stability (absorbance of aldehyde peak at 349 nm),"[3]; pH 7.4, 24 hr",2.98 ± 0.07
same,Stability (absorbance of aldehyde peak at 349 nm),"[3]; pH 7.4, 28 hr",2.90 ± 0.04
same,Stability (absorbance of aldehyde peak at 349 nm),"[3]; pH 7.4, 48 hr",3.00 ± 0.05
same,Stability (absorbance of aldehyde peak at 349 nm),"[3]; pH 7.4, 56 hr",2.98 ± 0.08
same,Stability (absorbance of aldehyde peak at 349 nm),"[3]; pH 7.4, 72 hr",2.92 ± 0.05
same,Stability (absorbance of aldehyde peak at 349 nm),"[3]; pH 7.4, 96 hr",2.95 ± 0.03
same,Stability (absorbance of aldehyde peak at 349 nm),"[3]; pH 8.0, 0 hr",1.82 ± 0.05
same,Stability (absorbance of aldehyde peak at 349 nm),"[3]; pH 8.0, 1 hr",1.79 ± 0.00
same,Stability (absorbance of aldehyde peak at 349 nm),"[3]; pH 8.0, 2 hr",1.73 ± 0.01
same,Stability (absorbance of aldehyde peak at 349 nm),"[3]; pH 8.0, 3 hr",1.73 ± 0.01
same,Stability (absorbance of aldehyde peak at 349 nm),"[3]; pH 8.0, 6 hr",1.71 ± 0.01
same,Stability (absorbance of aldehyde peak at 349 nm),"[3]; pH 8.0, 24 hr",1.73 ± 0.02
same,Stability (absorbance of aldehyde peak at 349 nm),"[3]; pH 8.0, 28 hr",1.70 ± 0.02
same,Stability (absorbance of aldehyde peak at 349 nm),"[3]; pH 8.0, 48 hr",1.68 ± 0.03
same,Stability (absorbance of aldehyde peak at 349 nm),"[3]; pH 8.0, 72 hr",1.73 ± 0.03
same,Stability (absorbance of aldehyde peak at 349 nm),"[3]; pH 8.0, 96 hr",1.68 ± 0.04
same,%Hb Modification (Hb Adduct),[4]; 0 h,0.00 ± 0.00%
same,"time of peak effect, Hb modification",[4]; normal whole blood,12 h
same,%Hb Modification (Hb Adduct),[4]; 1 h,25.20 ± 1.20%
same,%Hb Modification (Hb Adduct),[4]; 2 h,23.40 ± 3.50%
same,%Hb Modification (Hb Adduct),[4]; 4 h,41.70 ± 4.30%
same,%Hb Modification (Hb Adduct),[4]; 8 h,47.30 ± 4.70%
same,%Hb Modification (Hb Adduct),[4]; 12 h,48.30 ± 0.50%
same,%Hb Modification (Hb Adduct),[4]; 24 h,43.30 ± 1.90%
